# Laboratory results reported in paper PMC5407577, “Functional and genetic evidence that nucleoside transport is highly conserved in Leishmania species: Implications for pyrimidine-based chemotherapy” (International Journal for Parasitology: Drugs and Drug …, 2017).
# Read-outs that look alike come from different tables or passages of the source.
# Key:
# LmajNT1 [1] = test: [3H]-uridine uptake by L. major promastigotes, low-affinity component; type: cell-based, Leishmania major; details: for Ki: inhibition of 0.25 μM [3H]-uridine uptake
# Procedure: (§1) Using the standard uptake technique as described for T. brucei and Leishmania species ([Wallace et al., 2002], [Al-Salabi and De Koning, 2005], [Gudin et al., 2006]), the dose- or time-dependent uptake of radiolabeled permeants was investigated.
# (§2) Briefly, cells in the mid-to-late logarithmic stage of growth were harvested by centrifugation for 10 min at 1500×g. The cells were washed twice with transport assay buffer (AB: 33 mM HEPES, 98 mM NaCl, 4.6 mM KCl, 0.55 mM CaCl2, 0.07 mM MgSO4, 5.8 mM NaH2PO4, 0.3 mM MgCl2, 23 mM NaHCO3, 14 mM glucose, pH 7.3), resuspended at a density of 10^8 cells ml^−1 in AB, and left for 20–30 min at room temperature to recover from centrifugation stress. One hundred microliters of cell suspension was incubated at ambient temperature for a predetermined time with 100 μl radiolabeled test compound, in the presence or absence of unlabeled substrate or other competitive inhibitors. The incubation was terminated by the addition of ice-cold stop solution (AB containing saturating levels, usually 10 mM, of unlabeled permeant) and centrifugation through oil for 1 min at 13,000 × g. […] Radioactivity was determined by liquid scintillation counting in a Beckman LS6000 TA scintillation counter. Saturation data, inhibition data, and time courses were plotted to equations for linear or non-linear regression (hyperbolic or sigmoid curves), as appropriate. All experiments were performed in triplicate and on at least three independent occasions.
# [2] = test system: L. mexicana promastigotes; type: cell-based, Leishmania mexicana; details: for inhibition of 0.25 μM [3H]-uridine transport: maximal inhibition, uracil up to 2.5 mM (Fig. 3B)
# Method in brief: (§3)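 Mid-to-late log-phase parasites were washed and held at 10^8 cells ml^−1 in HEPES/bicarbonate buffer with glucose, pH 7.3, then incubated at ambient temperature with radiolabelled permeant, with or without unlabelled substrate or inhibitors. Uptake was stopped with ice-cold excess unlabelled permeant and oil centrifugation, then counted by scintillation; saturation, inhibition and time-course data fitted by regression, in triplicate.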
# Lmex5F2′dURes = type: cell-based, Leishmania mexicana; details: 0.5 μM [3H]-uridine, 0.1 μM [3H]-adenosine, 0.25 μM [3H]-uracil
# Method in brief: as §3
# LmexNT1 [3] = type: cell-based, Leishmania mexicana; details: for Ki: inhibition of 0.25 μM [3H]-uridine uptake in the presence of 1 mM uracil
# Method in brief: as §3
# LdNT1.1 = test system: LdNT1.1; parameters: method as in Vasudevan et al., 1998; Landfear, 2001; details: ref Vasudevan et al., 1998; Landfear, 2001; cited from earlier work
# LmajUUT1 = test: [3H]-uridine uptake by L. major promastigotes, high-affinity uracil-sensitive component; type: cell-based, Leishmania major; details: for Ki: inhibition of 0.25 μM [3H]-uridine uptake; for Km: double reciprocal plot, n = 3, read-out: Km (1)
# Procedure: as §1, §2
# LmexNT1 [4] = test: [3H]-adenosine uptake by L. mexicana promastigotes; type: cell-based, Leishmania mexicana; details: for Ki: inhibition of 0.05 μM [3H]-adenosine uptake, read-out: Ki
# LmexNT1 [5] = type: cell-based, Leishmania mexicana; details: inhibition of 1 μM [3H]-thymidine uptake, 20 s
# L. major promastigotes = test: total [3H]-uridine uptake by L. major promastigotes; type: cell-based, Leishmania major
# Procedure: as §1, §2
# LmajNT2 = test: [3H]-inosine transport by T. brucei B48 cells expressing LmajNT2; type: cell-based, Leishmania major; details: 250 μM adenosine
# Procedure: Plasmid construction and transfection was performed according to [Munday et al. (2013)]. The nucleoside transporter genes were isolated from L. mexicana and L. major. […] The primers used in this study (Table S2) were designed to flank the gene of interest, one complementary to the sequence upstream of the 5′ end and the other complementary to the sequence downstream of the 3′ end. All of the nucleoside transporters genes were PCR-amplified from genomic DNA of each strain using the high-fidelity proof-reading polymerase Phusion (New England Biolabs) and cloned into the pGEMTeasy (Promega) vector prior to Sanger sequencing (Source BioScience, Glasgow, UK). […] After confirming the identity of each gene, the nucleoside transporter genes (LmajNT1A, LmajNT1B, LmajNT2, LmexNT1A, LmexNT1B, and LmexNT2) were ligated into the expression vector pHD1336 ([Biebinger et al., 1997]) and then were linearized with NotI digestion. All genes were verified by Sanger sequencing, prior to transfection into T. b. brucei clone B48. B48 parasites (1 × 10^7 cells) were washed into Human T Cell buffer for transfection using the desired cassette with an Amaxa Nucleofector using program X-001. Cells were transferred into pre-warmed HMI-9 medium and allowed to recover for 8–16 h at 37 °C and 5% CO2. Following recovery, transfectants were grown and cloned in selective medium containing 5 μg ml^−1 blasticidin S using limiting dilution.
# as §1
# Briefly, cells in the mid-to-late logarithmic stage of growth were harvested by centrifugation for 10 min at 1500×g. […] Radioactivity was determined by liquid scintillation counting in a Beckman LS6000 TA scintillation counter. […]
# LmajNT1 [6] = test: [3H]-thymidine uptake by L. major promastigotes; type: cell-based, Leishmania major; details: inhibition of 0.25 μM [3H]-thymidine uptake (total LmajNT1.1 + LmajNT1.2), 5 min
# LdNT1.2 = test system: LdNT1.2; parameters: method as in Vasudevan et al., 1998; Landfear, 2001; details: ref Vasudevan et al., 1998; Landfear, 2001; cited from earlier work
# T. b. brucei strain B48 [7] = test: [3H]-inosine uptake in non-transfected T. brucei B48; type: cell-based, Trypanosoma brucei brucei; details: 250 μM adenosine or 1 mM unlabeled inosine (Fig. 7B)
# Procedure: as §1, §2
# Lmaj5FURes = type: cell-based, Leishmania major; details: 0.5 μM radiolabel
# Procedure: as §1, §2
# Lmaj5F2′dURes = type: cell-based, Leishmania major; details: 0.25 μM [3H]-uridine, 0.5 μM [3H]-uracil
# Procedure: as §1, §2
# Lmex5FURes = type: cell-based, Leishmania mexicana; details: 0.5 μM radiolabel
# Method in brief: as §3
# LmexUU1 = type: cell-based, Leishmania mexicana
# Method in brief: as §3
# LmajU1 = test system: LmajU1; parameters: method as in Papageorgiou et al., 2005; details: ref Papageorgiou et al., 2005; cited from earlier work
# T. b. brucei strain B48 [8] = test: microbe, parasite or virus in culture; type: cell-based; details: Trypanosoma brucei, read-out: inhibition of 0.5 μM [3H]-uridine uptake, 250 μM inhibitor
# Procedure: as §1
# as §2, with “All experiments were performed in triplicate and on at least three independent occasions.” left out
# [9] = biological target: P1 adenosine/inosine transporter; parameters: method as in De Koning and Jarvis, 1999; details: ref De Koning and Jarvis, 1999; cited from earlier work
# [10] = [3H]-uridine, high affinity component
smiles,measurement,setting,value
Nc1ncnc2c1ncn2[C@@H]1O[C@H](CO)[C@@H](O)[C@H]1O [adenosine],Ki,LmajNT1 [1],1.93 ± 0.49 µM
same,inhibition of 0.25 μM [3H]-uridine transport,[2],~100%
same,"uptake of radiolabel, reduced compared to WT control cells",Lmex5F2′dURes,89%
same,Ki,LmexNT1 [3],0.39 ± 0.09 µM
same,Km,LdNT1.1,~0.2 µM
same,Ki,LmajUUT1,1.93 ± 0.49 µM
same,rate of transport,"LmexNT1 [4]; 0.1 μM [3H]-adenosine, linear over at least 30 s",0.21 ± 0.01 pmol(10^7 cells)^−1s^−1
same,Km,LmexNT1 [4]; [3H]-adenosine,0.81 ± 0.16 µM
same,Vmax,LmexNT1 [4]; [3H]-adenosine,1.11 ± 0.19 pmol(10^7 cells)^−1s^−1
same,Ki,LmexNT1 [5],0.25 ± 0.04 µM
same,Ki,L. major promastigotes; complete inhibition of [3H]-uridine transport (both components),1.93 ± 0.49 µM
same,inhibition of 50 nM [3H]-inosine transport,LmajNT2,57%
same,Ki,LmajNT1 [6],1.77 ± 0.21 µM
same,Km,LdNT1.2,~5 µM
same,inhibition of 50 nM [3H]-inosine transport,T. b. brucei strain B48 [7],fully inhibited
O=c1cc[nH]c(=O)[nH]1 [uracil],Ki,LmajNT1 [1],> 1000 µM
same,"uptake of radiolabel, lower than in WT control cells",Lmaj5FURes,95.7%
same,"uptake of radiolabel, lower than in WT control cells",Lmaj5F2′dURes,80%
same,"uptake of radiolabel, lower than in WT control cells",Lmaj5F2′dURes; listed as [^3H]-uracil,81.4%
same,"uptake of radiolabel, lower than in WT control cells",Lmex5FURes,90.2%
same,inhibition of 0.25 μM [3H]-uridine transport,[2],48%
same,Ki,"[2]; read-out: Ki, uracil-sensitive uridine transporter, partial inhibition of 0.25 μM [3H]-uridine uptake, n = 5",25.7 ± 6.6 µM
same,rate of transport,"LmexUU1; 0.25 μM [3H]-uracil, linear to at least 10 min",0.0020 ± 0.0002 pmol(10^7 cells)^−1s^−1
same,rate of transport,"LmexUU1; 0.5 μM [3H]-uracil, linear over 10 min (Fig. 4B legend)",0.0020 ± 0.0002 pmol(10^7 cells)^−1s^−1
same,rate of transport,"LmexUU1; 1 μM [3H]-uracil, linear over 120 s",0.0030 ± 0.0002 pmol(10^7 cells)^−1s^−1
same,inhibition of 0.5 μM [3H]-uracil transport,LmexUU1; 1 mM unlabeled uracil,95%
same,Vmax,LmexUU1; [3H]-uracil,0.088 ± 0.010 pmol(10^7 cells)^−1s^−1
same,Km,"LmexUU1; [3H]-uracil, 4 min, n = 3",29.7 ± 4.4 µM
same,"uptake of radiolabel, reduced compared to WT control cells",Lmex5F2′dURes,unaffected
same,"uptake of radiolabel, reduced compared to WT control cells",Lmex5F2′dURes; listed as [^3H]-uracil,not significantly different
same,Ki,LmexNT1 [3],> 2500 µM
same,Km,LmajU1,0.32 µM
same,Ki,LmajUUT1,2.65 ± 0.6 µM
same,Ki,LmexNT1 [4],> 2500 µM
same,Ki,LmexNT1 [5],> 2500 µM
same,inhibition at 0.25 µM,"L. major promastigotes; Leishmania major, 3 h, read-out: partial (maximal) inhibition of 0.25 μM [3H]-uridine transport",77.2 ± 2.7%
same,Ki,LmajNT1 [6],> 1000 µM
same,inhibition at 250 µM,T. b. brucei strain B48 [8],75.7%
O=c1ccn([C@@H]2O[C@H](CO)[C@@H](O)[C@H]2O)c(=O)[nH]1 [uridine],Ki,[9],830 µM
same,Vmax (2),"LmajNT1 [1]; [3H]-uridine, low affinity component",0.15 ± 0.04 pmol(10^7 cells)^−1s^−1
same,Km,"LmajNT1 [1]; [3H]-uridine, low affinity component, n = 3, read-out: Km (2)",33.5 ± 7.3 µM
same,Km,"[2]; read-out: Km for the uridine flux, total flux, no uracil, n = 5",7.15 ± 0.9 µM
same,Ki,"LmexUU1; inhibition of [3H]-uracil uptake, 4 min",2 ± 0.5 µM
same,maximal inhibition of [3H]-uracil transport,LmexUU1; n = 3,approximately 85%
same,Vmax,"LmexNT1 [3]; [3H]-uridine, in the presence of 1 mM uracil",0.74 ± 0.13 pmol(10^7 cells)^−1s^−1
same,Km,"LmexNT1 [3]; [3H]-uridine, measured in the presence of 1 mM uracil",13.3 ± 2.4 µM
same,Km,LdNT1.1,5 µM
same,Vmax (1),LmajUUT1; [10],0.036 ± 0.004 pmol(10^7 cells)^−1s^−1
same,Km,"LmajUUT1; [3H]-uridine, high affinity component, listed as [^3H]-uridine",3.12 ± 0.61 µM
same,Km,LmajUUT1; [10],3.1 ± 0.6 µM
same,Ki,LmexNT1 [4],16.8 ± 1.3 µM
same,Ki,LmexNT1 [5],9.1 ± 0.6 µM
same,Km,"L. major promastigotes; n = 3, read-out: apparent Km (single Michaelis-Menten saturation plot)",7.3 ± 1.3 µM
same,Km,LdNT1.2,40 µM
